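96-well plates; 48 h exposure; 5 concentrations. Endpoints by linear interpolation between flanking doses. Not reached: highest tested concentration assigned. GI50 marks 50% less growth.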 Activity calls are given as the source filed them. Rule as the data show it: active = GI50 up to about 1.1 µM and inactive = higher.
How the values were obtained:
Assay in all cases: DTP human tumour cell line panel, 48 h
A549 = system: A549
COLO 205 = system: COLO 205
DU-145 = system: DU-145
HOP-62 = system: HOP-62
IGROV-1 = system: IGROV-1
K562 = system: K562
KM12 = system: KM12
MDA-N = system: MDA-N
MOLT-4 = system: MOLT-4
NCI-H23 = system: NCI-H23
OVCAR-3 = system: OVCAR-3
OVCAR-4 = system: OVCAR-4
PC-3 = system: PC-3
RXF 393 = system: RXF 393
SF-268 = system: SF-268
SK-MEL-28 = system: SK-MEL-28
SK-OV-3 = system: SK-OV-3
U-251 = system: U-251
UO-31 = system: UO-31
HL-60 = system: HL-60

Measured: GI50

O=C1Nc2ccccc2/C1=N\c1cccc2ncccc12
inactive: A549 81.5 µM | COLO 205 > 100 µM | DU-145 > 100 µM | HOP-62 46.5 µM | IGROV-1 51.1 µM | K562 34 µM | KM12 95.1 µM | MDA-N 34.5 µM | MOLT-4 30 µM | NCI-H23 32.2 µM | OVCAR-3 63.7 µM | OVCAR-4 68.9 µM | PC-3 > 100 µM | RXF 393 > 100 µM | SF-268 67.1 µM | SK-MEL-28 > 100 µM | SK-OV-3 26.7 µM | U-251 67.5 µM | UO-31 > 100 µM

CCOC(=O)CCC(NC(=O)Cc1ccc(Oc2nc3ccccc3nc2-c2ccccc2)cc1)C(=O)OCC (configuration not stated)
inactive: A549 > 100 µM | COLO 205 > 100 µM | DU-145 > 100 µM | HL-60 > 100 µM | HOP-62 45.6 µM | K562 63.2 µM | KM12 > 100 µM | MDA-N > 100 µM | MOLT-4 > 100 µM | NCI-H23 > 100 µM | OVCAR-3 96.8 µM | OVCAR-4 56.4 µM | PC-3 41.9 µM | RXF 393 37.6 µM | SF-268 27 µM | SK-MEL-28 > 100 µM | SK-OV-3 58.6 µM | U-251 75.9 µM | UO-31 52.5 µM

Cc1ccc2c(c1)C(=O)N1CCC[C@H]1C=N2
inactive: A549 30.7 µM | COLO 205 17.6 µM | DU-145 7.78 µM | HOP-62 27.7 µM | IGROV-1 14.3 µM | K562 7.76 µM | KM12 15.5 µM | MDA-N 19.2 µM | MOLT-4 18.8 µM | NCI-H23 16.5 µM | OVCAR-3 19.1 µM | OVCAR-4 19.4 µM | PC-3 17.7 µM | RXF 393 4.21 µM | SF-268 31.3 µM | SK-MEL-28 22.7 µM | SK-OV-3 42 µM | U-251 16.3 µM | UO-31 5.37 µM

O=C1Nc2ccccc2[C@]12C[C@H]2c1ccccn1
inactive: A549 > 100 µM | COLO 205 > 100 µM | DU-145 > 100 µM | HOP-62 > 100 µM | IGROV-1 > 100 µM | K562 > 100 µM | KM12 > 100 µM | MDA-N > 100 µM | MOLT-4 > 100 µM | NCI-H23 > 100 µM | OVCAR-3 > 100 µM | OVCAR-4 > 100 µM | PC-3 > 100 µM | RXF 393 > 100 µM | SF-268 > 100 µM | SK-MEL-28 > 100 µM | SK-OV-3 > 100 µM | U-251 > 100 µM | UO-31 > 100 µM

Cc1ccc(C(=O)N/N=C(\N=N\c2ccc(C(=O)O)cc2)c2ccc(N(CCC#N)CCC#N)cc2C)cc1
inactive: A549 > 100 µM | COLO 205 > 100 µM | DU-145 > 100 µM | HL-60 79.3 µM | HOP-62 > 100 µM | K562 > 100 µM | KM12 > 100 µM | MDA-N > 100 µM | MOLT-4 > 100 µM | NCI-H23 > 100 µM | OVCAR-3 62.8 µM | OVCAR-4 > 100 µM | PC-3 > 100 µM | RXF 393 32.1 µM | SK-MEL-28 > 100 µM | SK-OV-3 80.7 µM | U-251 > 100 µM | UO-31 > 100 µM

C1COCCN1.CN(C)c1ccc(-c2c(C#N)c(N)nc(S)c2C#N)cc1
inactive: A549 > 100 µM | COLO 205 > 100 µM | DU-145 > 100 µM | HL-60 > 100 µM | HOP-62 87.3 µM | IGROV-1 40.1 µM | K562 > 100 µM | MDA-N 54.1 µM | NCI-H23 60 µM | OVCAR-3 > 100 µM | OVCAR-4 35 µM | PC-3 30.5 µM | RXF 393 23.5 µM | SF-268 > 100 µM | SK-MEL-28 82.6 µM | SK-OV-3 > 100 µM | U-251 > 100 µM | UO-31 64.1 µM

Clc1cc(-c2csc(Cl)c2)cs1
inactive: A549 > 100 µM | COLO 205 > 100 µM | DU-145 > 100 µM | HL-60 > 100 µM | IGROV-1 > 100 µM | KM12 > 100 µM | MDA-N > 100 µM | MOLT-4 > 100 µM | NCI-H23 > 100 µM | OVCAR-3 > 100 µM | OVCAR-4 > 100 µM | PC-3 > 100 µM | RXF 393 > 100 µM | SF-268 > 100 µM | SK-MEL-28 > 100 µM | U-251 > 100 µM | UO-31 > 100 µM

CC(C)CC(NC(=O)C(C)(CI)Cc1ccccc1)C(=O)Nc1ccccc1 (configuration not stated)
inactive: A549 > 100 µM | COLO 205 > 100 µM | DU-145 > 100 µM | HL-60 33.2 µM | IGROV-1 > 100 µM | K562 > 100 µM | KM12 > 100 µM | MDA-N > 100 µM | MOLT-4 56.1 µM | NCI-H23 > 100 µM | OVCAR-3 > 100 µM | OVCAR-4 > 100 µM | PC-3 > 100 µM | RXF 393 > 100 µM | SK-OV-3 > 100 µM | U-251 > 100 µM | UO-31 > 100 µM

CC(C(N)=O)N(C)C(=O)c1cnc2ccccc2c1 (configuration not stated)
inactive: A549 > 100 µM | COLO 205 > 100 µM | DU-145 > 100 µM | HL-60 > 100 µM | IGROV-1 > 100 µM | K562 17 µM | KM12 > 100 µM | MDA-N > 100 µM | MOLT-4 > 100 µM | NCI-H23 > 10 µM | OVCAR-3 > 100 µM | OVCAR-4 > 100 µM | PC-3 > 100 µM | RXF 393 > 100 µM | SF-268 > 10 µM | SK-MEL-28 > 100 µM | U-251 > 100 µM | UO-31 > 100 µM

O=c1[nH]c2nc3ccccc3c(=O)n2/c1=C/c1ccccc1
inactive: A549 > 100 µM | COLO 205 33.1 µM | DU-145 29 µM | HL-60 56.1 µM | HOP-62 > 100 µM | IGROV-1 17.9 µM | KM12 38.5 µM | MDA-N 25.6 µM | MOLT-4 95.5 µM | NCI-H23 30.3 µM | OVCAR-3 22 µM | OVCAR-4 > 100 µM | PC-3 92 µM | RXF 393 55 µM | SF-268 20.6 µM | SK-MEL-28 45.1 µM | SK-OV-3 > 100 µM | U-251 29.9 µM | UO-31 78 µM

COC(=O)C(Cc1ccccc1)NC(=O)CSc1nnc(COc2ccc(Cl)cc2)n1-c1ccccc1 (configuration not stated)
inactive: A549 39.4 µM | COLO 205 20.4 µM | DU-145 34.8 µM | HL-60 20.6 µM | HOP-62 15 µM | IGROV-1 27.5 µM | K562 27.4 µM | KM12 37.7 µM | MDA-N 20.5 µM | MOLT-4 34 µM | NCI-H23 22.3 µM | OVCAR-4 21.4 µM | PC-3 22.8 µM | RXF 393 19.1 µM | SF-268 25.7 µM | SK-MEL-28 27.2 µM | SK-OV-3 15.8 µM | U-251 18.5 µM | UO-31 1.83 µM

Source: ChEMBL document CHEMBL1201862, “PubChem BioAssay data set” (2004)
